Laboratory results reported in the NIST ThermoML archive (doi:10.1021/je3013205).

Assay: xn = mol fraction of the nth substance listed
Settings: 101 kPa, Liquid, Vibrating tube method

OCCO [1,2-ethanediol] + NCCO
x1 = 1
Settings	mass density [kg/m3]
283.15 K	1119.29
293.15 K	1112.37
303.15 K	1105.39
313.15 K	1098.34
323.15 K	1091.21
333.15 K	1083.99
343.15 K	1076.65

OCCO [1,2-ethanediol] + NCCOCCO
x1 = 1
Settings	mass density [kg/m3]
283.15 K	1119.29
293.15 K	1112.37
303.15 K	1105.39
313.15 K	1098.34
323.15 K	1091.21
333.15 K	1083.99
343.15 K	1076.65

NCCOCCO [2-(2-aminoethoxy)ethanol] + CC(C)O
mass density [kg/m3]
Settings	x2 = 0	x2 = 0.1002	x2 = 0.2002	x2 = 0.2999	x2 = 0.3998	x2 = 0.5001	x2 = 0.6	x2 = 0.7001	x2 = 0.7999	x2 = 0.9
283.15 K	1063.9	1045.45	1024.83	1002.4	978.848	953.526	926.557	896.824	864.765	830.522
293.15 K	1055.86	1037.41	1016.77	994.333	970.775	945.419	918.428	888.658	856.572	822.302
303.15 K	1047.8	1029.32	1008.68	986.21	962.634	937.23	910.206	880.385	848.24	813.893
313.15 K	1039.73	1021.21	1000.54	978.03	954.426	928.957	901.852	871.966	839.727	805.266
323.15 K	1031.63	1013.07	992.342	969.77	946.127	920.579	893.378	863.375	831.011	796.354
333.15 K	1023.46	1004.87	984.07	961.425	937.625	912.056	884.74	854.584	822.035	787.116
343.15 K	1015.24	996.578	975.712	952.983	929.152	903.381	875.931	845.569	812.769	777.485

NCCOCCO [2-(2-aminoethoxy)ethanol] + CO
mass density [kg/m3]
Settings	x2 = 0	x2 = 0.0999	x2 = 0.1999	x2 = 0.3001	x2 = 0.4	x2 = 0.5	x2 = 0.6002	x2 = 0.6999	x2 = 0.8	x2 = 0.9001
283.15 K	1063.9	1055.89	1046	1034.44	1019.81	1002.23	980.617	953.558	916.98	868.243
293.15 K	1055.86	1047.82	1037.87	1026.25	1011.56	993.898	972.194	945.032	908.292	859.298
303.15 K	1047.8	1039.72	1029.71	1018.04	1003.27	985.526	963.722	936.443	899.545	850.287
313.15 K	1039.73	1031.59	1021.52	1009.78	995.032	977.101	955.185	927.795	890.727	841.205
323.15 K	1031.63	1023.41	1013.29	1001.48	986.54	968.618	946.586	919.061	881.797	832.01
333.15 K	1023.46	1015.19	1004.99	993.102	978.075	960.052	937.892	910.228	872.764	822.672

NCCOCCO [2-(2-aminoethoxy)ethanol] + OCCO
mass density [kg/m3]
Settings	x2 = 0	x2 = 0.0999	x2 = 0.1998	x2 = 0.2998	x2 = 0.4001	x2 = 0.4999	x2 = 0.5999	x2 = 0.7002	x2 = 0.8	x2 = 0.8998
283.15 K	1063.9	1069.41	1074.47	1079.73	1084.82	1090.24	1095.7	1101.26	1107.46	1113.95
293.15 K	1055.86	1061.43	1066.58	1071.94	1077.11	1082.67	1088.26	1093.92	1100.25	1106.86
303.15 K	1047.8	1053.44	1058.65	1064.1	1069.38	1075.06	1080.79	1086.54	1093	1099.72
313.15 K	1039.73	1045.41	1050.69	1056.23	1061.6	1067.42	1073.26	1079.13	1085.7	1092.53
323.15 K	1031.63	1037.35	1042.69	1048.31	1053.78	1059.7	1065.66	1071.68	1078.32	1085.26
333.15 K	1023.46	1029.22	1034.63	1040.32	1045.89	1051.9	1057.97	1064.11	1070.86	1077.9
343.15 K	1015.24	1021.03	1026.5	1032.27	1037.92	1044.03	1050.2	1056.51	1063.3	1070.45

NCCO [2-aminoethan-1-ol] + CC(C)O
mass density [kg/m3]
Settings	x2 = 0	x2 = 0.1001	x2 = 0.1999	x2 = 0.3002	x2 = 0.4001	x2 = 0.5001	x2 = 0.5999	x2 = 0.7	x2 = 0.8002	x2 = 0.8999
283.15 K	1024.11	999.024	974.32	949.806	925.587	902.006	879.054	856.17	834.572	813.792
293.15 K	1016.23	990.993	966.334	941.791	917.446	893.95	870.943	848.018	826.391	805.582
303.15 K	1008.32	982.903	958.311	933.723	909.315	885.794	862.727	839.735	818.066	797.19
313.15 K	1000.37	974.928	950.234	925.597	901.039	877.533	854.388	831.308	809.555	788.57
323.15 K	992.364	966.92	942.073	917.361	892.673	869.138	845.897	822.707	800.81	779.665
333.15 K	984.301	958.72	933.821	909.018	884.471	860.597	837.216	813.881	791.784	770.393
343.15 K	976.153	950.596	925.458	900.544	875.887	851.867	828.323	804.773	782.457	760.722
